According to paper PMC10178127, “Immunomodulatory Effects of the Pea Defensin Psd1 in the Caco-2/Immune Cells Co-Culture upon Candida albicans Infection” (International Journal of Molecular Sciences, 2023):

Tested on: Caco-2/monocytes co-culture
Experiment: Multiplex xMAP cytokine production, Caco-2/monocytes co-culture
Type: cell-based, human
Conditions: 24 h; for EGF level / Eotaxin level / FGF-2 level / FLT-3L level / Fractalkine level / G-CSF level / GM-CSF level / GROa level / IFNa2 level / IFNg level / IL-1RA level / IL-1a level / IL-1b level / IL-2 level / IL-3 level / IL-4 level / IL-5 level / IL-6 level / IL-7 level / IL-8 level / IL-9 level / IL-10 level / IL-12 (p40) level / IL-12 (p70) level / IL-13 level / IL-15 level / IL-17A level / IL-17E/IL-25 level / IL-17F level / IL-18 level / IL-22 level / IL-27 level / IP-10 level / M-GSF level / MCP-1 level / MCP-3 level / MDC level / MIG level / MIP-1a level / MIP-1b level / PDGF-AA level / PDGF-AB/BB level / RANTES level / TGF-a level / TNFa level / TNFb level / VEGFa level / sCD40L level: 2 µM apical, basolateral medium
From the text: The co-culture model consisted of immune cells (moDCs or monocytes) lying on the bottom of the culture well, and a Caco-2 polarized monolayer, mimicking intestinal epithelium, on a permeable insert. Immune cells were located on the serosal side of the epithelial barrier. In some inserts Candida albicans was loaded to the apical side of the epithelium, mimicking intestinal lumen colonization with this pathogenic fungus. This co-culture model allows yeast cells to contact only with the apical side of epithelial cells, but not with immune cells. Culture medium, containing cytokines, chemokines, and growth factors, produced by both epithelial and immune cells, was taken from basolateral chambers and analyzed by multiplex xMAP technology after incubation during 24 h when C. albicans cells switched to hyphal form.
For growing cells, mimicking epithelial barriers in vitro, Caco-2 cells were seeded onto 24-well polycarbonate Millicell cell culture inserts (0.4 μm, 0.6 cm^2 surface area) (Millipore, Burlington, MA, USA), precoated with 0.2% bovine gelatin (Sigma-Aldrich), at a density of 2.5 × 10^5 cells/cm^2. The cells were grown for 21 days in a complete DMEM/F12 (1:1) medium with re-feeding every 2–3 days with a fresh complete medium. The integrity of the Caco-2 cell monolayer was checked by measuring the transepithelial electrical resistance (TEER) using a Millicell-ERS Voltohmmeter (Millipore). Only cell monolayers with TEER > 400 Ωcm^2 (after subtracting TEER in blank inserts without Caco-2 cells) were used in transport across epithelial monolayer and cytokine production experiments.
Monocytes and moDCs were seeded into the wells of 48- and 24-well plates in the complete RPMI-1640 medium supplemented with 10% human AB serum (HABS, Capricorn Scientific) without antibiotics 24 h prior to the experiment, and kept in a humidified CO2-incubator (5% CO2, 37 °C). After 24 h, the medium in the wells of the 48-well plate was replaced by fresh complete RPMI-1640 medium with 10% HABS, supplemented with 2 µM of Psd1 for the sample wells or fresh medium alone for the control wells. Medium in the wells of the 24-well plate was replaced by fresh complete RPMI-1640 medium with 10% human serum without antibiotics. Then, Millicell inserts with Caco-2 monolayers with TEER > 400 Ωcm^2 were placed into the wells of the 24-well plate, containing monocytes or moDCs. Wells with Millicell inserts with Caco-2 monolayers without immune cells were used as control wells. Medium in apical chambers of Millicell inserts was replaced by fresh complete RPMI-1640 with 10% human serum medium containing Psd1 at the final concentration of 2 µM or Candida albicans at the concentration of 5 × 10^4 cells/mL or yeast cells together with the pea defensin at the same concentration. Fresh complete RPMI-1640 medium only with 10% human serum and without antibiotics was used in control wells. Plates were kept in CO2-incubator (5% CO2, 37 °C) for another 24 h. Culture supernatants from the wells of the 48-well plate and basolateral chambers of the 24-well plate were collected and stored at −70 °C degrees less than one month prior to the analytes assessment. […]

[1] = Caco-2/monocytes co-culture with C. albicans, 2 μM

Psd1: pea defensin from Pisum sativum (UNIPROT P81929), recombinant peptide overexpressed in Escherichia coli (KTCEHLADTYRGVCFTNASCDDHCKNKAHLISGTCHNWKCFCTQNC; UniProt P81929 1-46, looked up)
EGF level (Caco-2/Mono+Candida+Psd1): 7 pg/mL | Eotaxin level (Caco-2/Mono+Candida+Psd1): 4.44 pg/mL | FGF-2 level (Caco-2/Mono+Candida+Psd1): 47.02 pg/mL | FLT-3L level (Caco-2/Mono+Candida+Psd1): 0.83 pg/mL | Fractalkine level (Caco-2/Mono+Candida+Psd1): 27.26 pg/mL | G-CSF level (Caco-2/Mono+Candida+Psd1): 63.23 pg/mL | GM-CSF level (Caco-2/Mono+Candida+Psd1): 2.65 pg/mL | GROa level (Caco-2/Mono+Candida+Psd1): 1596 pg/mL | IFNa2 level (Caco-2/Mono+Candida+Psd1): 15.36 pg/mL | IFNg level (Caco-2/Mono+Candida+Psd1): <2.23↓ pg/ml | IL-1RA level (Caco-2/Mono+Candida+Psd1): 7.97 pg/mL | IL-1a level (Caco-2/Mono+Candida+Psd1): 29.04 pg/mL | IL-1b level (Caco-2/Mono+Candida+Psd1): 26.83 pg/mL | IL-2 level (Caco-2/Mono+Candida+Psd1): <0.95↓ pg/ml | IL-3 level (Caco-2/Mono+Candida+Psd1): <0.60↓ pg/ml | IL-4 level (Caco-2/Mono+Candida+Psd1): 3.07 pg/mL | IL-5 level (Caco-2/Mono+Candida+Psd1): <0.30↓ pg/ml | IL-6 level (Caco-2/Mono+Candida+Psd1): 631.32 pg/mL | IL-7 level (Caco-2/Mono+Candida+Psd1): <0.38↓ pg/ml | IL-8 level (Caco-2/Mono+Candida+Psd1): 8138 pg/mL | IL-9 level (Caco-2/Mono+Candida+Psd1): 6.07 pg/mL | IL-10 level (Caco-2/Mono+Candida+Psd1): 4.47 pg/mL | IL-12 (p40) level (Caco-2/Mono+Candida+Psd1): 25.99 pg/mL | IL-12 (p70) level (Caco-2/Mono+Candida+Psd1): <1.68↓ pg/ml | IL-13 level (Caco-2/Mono+Candida+Psd1): 25.38 pg/mL | IL-15 level (Caco-2/Mono+Candida+Psd1): 1.44 pg/mL | IL-17A level (Caco-2/Mono+Candida+Psd1): 2.9 pg/mL | IL-17E/IL-25 level (Caco-2/Mono+Candida+Psd1): <18.85↓ pg/ml | IL-17F level (Caco-2/Mono+Candida+Psd1): <19.03↓ pg/ml | IL-18 level (Caco-2/Mono+Candida+Psd1): 3.62 pg/mL | IL-22 level (Caco-2/Mono+Candida+Psd1): 24.13 pg/mL | IL-27 level (Caco-2/Mono+Candida+Psd1): 63.98 pg/mL | IP-10 level (Caco-2/Mono+Candida+Psd1): 35.99 pg/mL | M-GSF level (Caco-2/Mono+Candida+Psd1): 34.31 pg/mL | MCP-1 level (Caco-2/Mono+Candida+Psd1): 9510 pg/mL | MCP-3 level (Caco-2/Mono+Candida+Psd1): 273.49 pg/mL | MDC level (Caco-2/Mono+Candida+Psd1): 1060 pg/mL | MIG level (Caco-2/Mono+Candida+Psd1): 50.41 pg/mL | MIP-1a level (Caco-2/Mono+Candida+Psd1): 22.02 pg/mL | MIP-1b level (Caco-2/Mono+Candida+Psd1): 53.4 pg/mL | PDGF-AA level (Caco-2/Mono+Candida+Psd1): 341.69 pg/mL | PDGF-AB/BB level (Caco-2/Mono+Candida+Psd1): 805.91 pg/mL | RANTES level (Caco-2/Mono+Candida+Psd1): 78.92 pg/mL | TGF-a level (Caco-2/Mono+Candida+Psd1): 2.79 pg/mL | TNFa level (Caco-2/Mono+Candida+Psd1): 33.8 pg/mL | TNFb level (Caco-2/Mono+Candida+Psd1): 11.12 pg/mL | VEGFa level (Caco-2/Mono+Candida+Psd1): 523.74 pg/mL | sCD40L level (Caco-2/Mono+Candida+Psd1): 89.41 pg/mL | EGF level (Caco-2/Mono+Psd1): 9.18 pg/mL | Eotaxin level (Caco-2/Mono+Psd1): 4.17 pg/mL | FGF-2 level (Caco-2/Mono+Psd1): 43.83 pg/mL | FLT-3L level (Caco-2/Mono+Psd1): 1.29 pg/mL | Fractalkine level (Caco-2/Mono+Psd1): 29.68 pg/mL | G-CSF level (Caco-2/Mono+Psd1): 80.21 pg/mL | GM-CSF level (Caco-2/Mono+Psd1): 4.74 pg/mL | GROa level (Caco-2/Mono+Psd1): 1849 pg/mL | IFNa2 level (Caco-2/Mono+Psd1): 18.56 pg/mL | IFNg level (Caco-2/Mono+Psd1): <2.23↓ pg/ml | IL-1RA level (Caco-2/Mono+Psd1): 10.99 pg/mL | IL-1a level (Caco-2/Mono+Psd1): 137.08 pg/mL | IL-1b level (Caco-2/Mono+Psd1): 62.38 pg/mL | IL-2 level (Caco-2/Mono+Psd1): 3.01 pg/mL | IL-3 level (Caco-2/Mono+Psd1): <0.60↓ pg/ml | IL-4 level (Caco-2/Mono+Psd1): 2.67 pg/mL | IL-5 level (Caco-2/Mono+Psd1): <0.30↓ pg/ml | IL-6 level (Caco-2/Mono+Psd1): 830.31 pg/mL | IL-7 level (Caco-2/Mono+Psd1): <0.38↓ pg/ml | IL-8 level (Caco-2/Mono+Psd1): 7130 pg/mL | IL-9 level (Caco-2/Mono+Psd1): 6.07 pg/mL | IL-10 level (Caco-2/Mono+Psd1): 8.82 pg/mL | IL-12 (p40) level (Caco-2/Mono+Psd1): 40.75 pg/mL | IL-12 (p70) level (Caco-2/Mono+Psd1): 2.06 pg/mL | IL-13 level (Caco-2/Mono+Psd1): 23.46 pg/mL | IL-15 level (Caco-2/Mono+Psd1): 2.33 pg/mL | IL-17A level (Caco-2/Mono+Psd1): 3.99 pg/mL | IL-17E/IL-25 level (Caco-2/Mono+Psd1): <18.85↓ pg/ml | IL-17F level (Caco-2/Mono+Psd1): <19.03↓ pg/ml | IL-18 level (Caco-2/Mono+Psd1): 5.64 pg/mL | IL-22 level (Caco-2/Mono+Psd1): 18.63 pg/mL | IL-27 level (Caco-2/Mono+Psd1): 76.02 pg/mL | IP-10 level (Caco-2/Mono+Psd1): 70.11 pg/mL | M-GSF level (Caco-2/Mono+Psd1): 34.31 pg/mL | MCP-1 level (Caco-2/Mono+Psd1): 9656 pg/mL | MCP-3 level (Caco-2/Mono+Psd1): 354.38 pg/mL | MDC level (Caco-2/Mono+Psd1): 1230 pg/mL | MIG level (Caco-2/Mono+Psd1): 129.1 pg/mL | MIP-1a level (Caco-2/Mono+Psd1): 26.21 pg/mL | MIP-1b level (Caco-2/Mono+Psd1): 45.94 pg/mL | PDGF-AA level (Caco-2/Mono+Psd1): 357.15 pg/mL | PDGF-AB/BB level (Caco-2/Mono+Psd1): 985.45 pg/mL | RANTES level (Caco-2/Mono+Psd1): 123.08 pg/mL | TGF-a level (Caco-2/Mono+Psd1): 4.39 pg/mL | TNFa level (Caco-2/Mono+Psd1): 44.58 pg/mL | TNFb level (Caco-2/Mono+Psd1): 10.19 pg/mL | VEGFa level (Caco-2/Mono+Psd1): 384.49 pg/mL | sCD40L level (Caco-2/Mono+Psd1): 94.06 pg/mL | production of IL-4 [1]: increased the production | production of IL-8/CXCL8, IL-12, TNFα, G-CSF, and GM-CSF [1]: decreased inhibiting action of pathogenic fungus | production of IL-22 [1]: statistically significantly (p < 0.05) increased | production of MIG/CXCL9 [1]: decreased the production | production of IL-2, IL-10, MDC and IL-17 (Caco-2/monocytes co-culture, 2 μM apical, no Candida): statistically significant increase
